Results: the supplement of paper PMC5844555

Assays:
Assay in all cases: 3' UTR reporter interaction score (median-centred robust z-score of log2 firefly/Renilla activity); higher = less repression of the 3' UTR reporter
Settings in all cases: HEK293T; 48 h
[1] = system: MYC
How it was run: (§1)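 Using DharmaFECT Duo, HEK293T cells (10,000/well, 96-well plates) were co-transfected with 2.5 pmol miRNA mimic, 100 ng firefly luc2P reporter containing the gene's 3' UTR and 20 ng Renilla pRL-TK control, and dual-luciferase activity was read 48 h later. The interaction score is the log firefly/Renilla ratio as a per-plate robust z-score (median, median absolute deviation), median-centred per miRNA, averaged over at least two independent screens; lower, more negative values indicate interaction.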

[2] = system: FBXW7
How it was run: as §1

[3] = system: HRAS
How it was run: as §1

[4] = system: EZH2
How it was run: as §1

[5] = system: TP53
How it was run: as §1

[6] = system: BRCA2
How it was run: as §1

[7] = system: RB1
How it was run: as §1

[8] = system: ZEB2
How it was run: as §1

[9] = system: MYB
How it was run: as §1

[10] = system: PHF6
How it was run: as §1

[11] = system: NOTCH1
How it was run: as §1

[12] = system: PHOX2B
How it was run: as §1

[13] = system: MYCN
How it was run: as §1

[14] = system: MYT1L
How it was run: as §1

Sequence	3' UTR reporter interaction score [1]	3' UTR reporter interaction score [2]	3' UTR reporter interaction score [3]	3' UTR reporter interaction score [4]	3' UTR reporter interaction score [5]	3' UTR reporter interaction score [6]	3' UTR reporter interaction score [7]	3' UTR reporter interaction score [8]	3' UTR reporter interaction score [9]	3' UTR reporter interaction score [10]	3' UTR reporter interaction score [11]	3' UTR reporter interaction score [12]	3' UTR reporter interaction score [13]	3' UTR reporter interaction score [14]
UUAAGACUUGCAGUGAUGUUUAA	-0.159	1.23	0.424	0.772	1.42	0.155	-2.53	-4.05	-1.14	-1.09	0.344	-0.221	0.438	-0.158
UUAAGGCACGCGGUGAAUGCCA	-0.0293	0.904	0.364	-1.56	0.35	-0.0269	-1.9	-0.335	-2.16	-1.29	0.623	0.282	0.541	2.33
UUAAUGCUAAUCGUGAUAGGGG	0.891	0.373	0.347	1.21	0.0933	-0.67	-0.667	-0.523	-1.61	-0.0755	0.178	0.553	-0.313	-0.119
UUACAGUUGUUCAACCAGUUACU	0.385	-1.36	0.218	0.156	0.131	1.74	-3.47	-1.76	-0.553	1.47	-0.374	-0.835	-1.85	0.162
UUAUAAUACAACCUGAUAAGUG	1.32	-0.529	0.161	0.963	-0.443	0.693	1.94	-0.469	-0.653	-0.286	-0.345	-0.00808	0.404	-1.13
UUAUCAGAAUCUCCAGGGGUAC	1.44	0.189	0.803	-0.893	-0.646	0.769	-0.955	0.799	1.26	0.08	0.0518	-1.55	-0.164	-0.147
UUAUGGUUUGCCUGGGACUGAG	0.675	-3.46	0.369	0.163	-1.16	0.104	-0.796	-0.72	1.44	-0.769	-0.409	0.156	-0.255	1.06
UUCAACGGGUAUUUAUUGAGCA	-0.455	0.647	1.35	0.563	0.52	0.803	0.475	-0.63	-0.5	-0.872	-0.631	0.542	0.423	-0.699
UUCAAGUAAUCCAGGAUAGGC	-1.71	1.99	-0.41	-4.57	0.423	1.36	-0.662	-0.465	1.11	-0.0329	1.68	-0.534	-0.368	1.27
UUCAAGUAAUUCAGGAUAGGUU	-1.49	1.51	-1.14	-4.18	-0.282	0.455	-1.95	0.133	1.26	-0.939	1.02	0.967	0.732	1.44
UUCACAGGGAGGUGUCAUUUAU	0.377	-3.1	0.0679	1.32	0.0668	-0.226	0.105	-0.846	-0.536	-1.72	0.269	-0.65	1.06	0.885
UUCACAGUGGCUAAGUUCUGC	-0.0656	-3.31	-1.25	-0.367	-0.662	-0.687	0.0429	0.787	1.56	0.752	1.04	0.845	0.736	0.34
UUCACCACCUUCUCCACCCAGC	0.119	-2.88	0.00141	0.425	-0.656	-0.718	0.874	1.21	0.974	-0.605	-0.224	0.365	0.95	0.639
UUCCCUUUGUCAUCCUAUGCCU	-0.0967	-1.78	-0.0998	0.404	-0.382	0.265	0.112	0.832	0.747	2.55	-0.728	-5.45	0.146	-0.655
UUCCCUUUGUCAUCCUUCGCCU	-0.168	-1.31	-0.327	0.0327	-0.355	0.539	0.903	-0.675	0.781	0.344	-0.19	-4.93	0.0207	-0.268
UUCUCCAAAAGAAAGCACUUUCUG	-0.642	-0.49	0.348	0.815	-0.447	0.931	1.42	1.36	-0.561	1.85	-0.152	1.93	-0.288	2.07

Sequence	3' UTR reporter interaction score [1]	3' UTR reporter interaction score [2]	3' UTR reporter interaction score [3]	3' UTR reporter interaction score [4]	3' UTR reporter interaction score [5]	3' UTR reporter interaction score [6]	3' UTR reporter interaction score [7]	3' UTR reporter interaction score [8]	3' UTR reporter interaction score [9]	3' UTR reporter interaction score [10]	3' UTR reporter interaction score [11]	3' UTR reporter interaction score [12]	3' UTR reporter interaction score [13]	3' UTR reporter interaction score [14]
UUGAGAAUGAUGAAUCAUUAGG	0.0578	-0.3	1.09	-0.195	0.335	0.13	-0.111	-0.412	0.0167	-1.78	0.0298	-0.12	-0.554	-0.0444
UUGCAUAGUCACAAAAGUGA	0.279	1.37	-0.0974	0.179	0.904	-0.381	-0.308	-2.2	-1.85	-0.0278	0.184	0.0715	0.143	-0.0799
UUGCAUAUGUAGGAUGUCCCAU	0.476	1.23	0.995	0.731	0.961	0.216	-0.812	-4.28	-1.75	-1.76	0.153	-1.16	-0.178	-1.22
UUGGCCACAAUGGGUUAGAAC	0.316	-5.44	-0.0679	-1.06	-0.693	0.035	0.342	0.409	0.316	1.18	-0.0688	0.306	0.113	1.36
UUGGUCCCCUUCAACCAGCUA	0.62	1.01	1.24	1.2	-0.692	-0.159	-0.167	-0.0455	-0.0299	-1.46	-0.864	-0.834	0.0097	0.425
UUGGUCCCCUUCAACCAGCUGU	0.174	1	1.24	1.28	-1.45	0.152	-0.063	-0.135	0.254	-1.13	-0.968	-0.898	0.117	0.5
UUGUACAUGGUAGGCUUUCAUU	1.21	-0.171	0.289	0.0583	-0.89	-0.0352	0.635	-1.84	1.15	-1.11	0.647	0.723	1.27	-0.141
UUGUGCUUGAUCUAACCAUGU	0.0929	0.164	-0.276	0.222	-0.638	0.391	0.758	-0.746	0.205	0.117	0.182	-1.73	-0.328	-0.134
UUUAACAUGGGGGUACCUGCUG	-0.0461	0.198	0.621	0.537	-0.238	1.26	0.395	-0.448	-1.1	0.182	-0.514	-1.08	0.0587	-0.244
UUUAGGAUAAGCUUGACUUUUG	-0.602	1.12	-0.108	0.299	0.0255	0.711	-0.349	-2.69	0.0477	-0.597	-0.42	-0.958	-0.873	0.523
UUUCCAUAGGUGAUGAGUCAC	0.823	-0.836	0.654	-3.48	-0.699	-0.419	0.93	-0.252	1.55	-0.367	-0.326	-0.505	1.24	-0.218
UUUCCUAUGCAUAUACUUCUUU	0.151	0.0806	-0.802	-0.62	-0.504	0.202	0.265	0.911	0.476	-0.444	-2.15	-0.604	0.517	1.98
UUUGGCAAUGGUAGAACUCACA	-0.026	-2.86	-0.139	0.322	0.0472	-0.0444	0.469	0.837	-1.17	-0.697	-0.441	0.438	-0.0764	0.203
UUUGUUCGUUCGGCUCGCGUGA	0.135	-0.0777	-0.635	0.52	0.275	1.05	-0.809	0.164	-0.574	1.7	0.323	0.0504	-0.313	-0.751
UUUUGCACCUUUUGGAGUGAA	0.393	-3.44	-0.429	-0.000424	0.767	0.467	-1.86	-4.16	1	0.706	1.27	-0.86	0.905	-0.182
UUUUUGCGAUGUGUUCCUAAUA	0.66	-2.28	0.633	1.27	0.414	0.151	-2.29	-2.41	0.165	0.21	0.568	0.492	-0.818	0.157
